In patent US20050096327A1, “Novel norepinephrine reuptake inhibitors for the treatment of central nervous system disorders” (priority 2003, published 2005) one finds Ki data, which are given here for 32 molecules.

Test [1] has as its target T1, human norepinephrine transporter (Homo sapiens, UniProt P23975).
T1 construct: host or cells: HEK-293
In words: hNET receptor binding ([125I]-RTI-55, membranes of transfected HEK-293 cells). Conditions: 50 pM [125I]-RTI-55, 90 min room temperature; IC50 converted by Cheng-Prusoff. As for the experimental part:
Cell pastes of HEK-293 cells transfected with the human norepinephrine transporter were supplied by the Pfizer Ann Arbor Protein Expression and Production group. Pellets were resuspended in 400 to 700 ml of Krebs-HEPES assay buffer (25 mM HEPES, 122 mM NaCl, 3 mM KCl, 1.2 mM MgSO4, 1.3 mM CaCl2, and 11 mM glucose, pH 7.4) with a Polytron homogenizer at setting 7 for 30 sec. Aliquots of membranes (5 mg/ml protein) were stored in liquid nitrogen until used.
The binding assay was set up in Beckman deep-well polypropylene plates with a total volume of 250 μl containing: drug (10^−5M to 10^−12M), cell membranes, and 50 pM [^125I]-RTI-55 (Perkin Elmer, NEX-272; specific activity 2200 Ci/mmol). The reaction was incubated by gentle agitation for 90 min at room temperature and was terminated by filtration through Whatman GF/C filter plates using a Brandel 96-well plate harvester. Scintillation fluid (100 μl) was added to each well, and bound [^125I]-RTI-55 was determined using a Wallac Trilux Beta Plate Counter. Test compounds were run in duplicate, and specific binding was defined as the difference between binding in the presence and absence of 10 μM desipramine.
Excel and GraphPad Prism software were used for data calculation and analysis. IC50 values were converted to Ki values using the Cheng-Prusoff equation. The Ki values for the hNET are reported below in Table 1.

The target in test [2] is T2, human serotonin transporter (Homo sapiens, UniProt P31645).
T2 construct: host or cells: HEK-293
T2 sequence (P31645 whole entry): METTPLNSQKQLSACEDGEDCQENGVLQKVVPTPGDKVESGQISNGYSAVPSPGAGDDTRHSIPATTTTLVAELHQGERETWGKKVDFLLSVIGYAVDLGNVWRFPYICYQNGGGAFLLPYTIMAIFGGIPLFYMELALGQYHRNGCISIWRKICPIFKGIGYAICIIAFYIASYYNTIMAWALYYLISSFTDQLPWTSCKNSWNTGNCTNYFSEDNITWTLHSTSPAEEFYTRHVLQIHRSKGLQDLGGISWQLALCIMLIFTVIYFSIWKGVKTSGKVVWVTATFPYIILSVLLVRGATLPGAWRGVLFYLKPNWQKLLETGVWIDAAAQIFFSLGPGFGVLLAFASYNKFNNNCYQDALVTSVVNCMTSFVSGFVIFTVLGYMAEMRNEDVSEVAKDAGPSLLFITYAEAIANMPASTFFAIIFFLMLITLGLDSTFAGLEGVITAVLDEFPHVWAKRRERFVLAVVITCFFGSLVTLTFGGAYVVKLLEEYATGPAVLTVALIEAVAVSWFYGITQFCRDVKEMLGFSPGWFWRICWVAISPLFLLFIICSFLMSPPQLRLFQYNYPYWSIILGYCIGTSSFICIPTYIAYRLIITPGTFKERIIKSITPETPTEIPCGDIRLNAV
As to the kind of experiment: hSERT receptor binding ([125I]-RTI-55, membranes of transfected HEK-293 cells). To be noted: 50 pM [125I]-RTI-55, 90 min room temperature; IC50 converted by Cheng-Prusoff. The procedure:
Cell pastes of HEK-293 cells transfected with the human serotonin transporter were supplied by the Pfizer Ann Arbor Protein Expression and Production Group. Pellets were resuspended in 400 to 700 mL of Krebs-HEPES assay buffer (25 mM HEPES, 122 mM NaCl, 3 mM KCl, 1.2 mM MgSO4, 1.3 mM CaCl2, and 11 mM glucose, pH 7.4) with a Polytron homogenizer at Setting 7 for 30 seconds. Aliquots of membranes (˜2.5 mg/mL protein) were stored in liquid nitrogen until used.
Assays were set up in FlashPlates pre-coated with 0.1% PEI in a total volume of 250 μL containing: drug (10^−5M to 10^−12M), cell membranes, and 50 pM [^125I]-RTI-55 (Perkin Elmer, NEX-272; specific activity 2200 Ci/mmol). The reaction was incubated and gently agitated for 90 minutes at room temperature, and terminated by removal of assay volume. Plates were covered, and bound [^125I]-RTI-55 was determined using a Wallac Trilux Beta Plate Counter. Test compounds were run in duplicate, and specific binding was defined as the difference between binding in the presence and absence of 10 μM citalopram.
Excel and GraphPad Prism software were used for data calculation and analysis. IC50 values were converted to Ki values using the Cheng-Prusoff equation. The Ki values for the hSERT are reported below in Table 1.

pKi: −log10 of the molar value.

T1 sequence (P23975 whole entry): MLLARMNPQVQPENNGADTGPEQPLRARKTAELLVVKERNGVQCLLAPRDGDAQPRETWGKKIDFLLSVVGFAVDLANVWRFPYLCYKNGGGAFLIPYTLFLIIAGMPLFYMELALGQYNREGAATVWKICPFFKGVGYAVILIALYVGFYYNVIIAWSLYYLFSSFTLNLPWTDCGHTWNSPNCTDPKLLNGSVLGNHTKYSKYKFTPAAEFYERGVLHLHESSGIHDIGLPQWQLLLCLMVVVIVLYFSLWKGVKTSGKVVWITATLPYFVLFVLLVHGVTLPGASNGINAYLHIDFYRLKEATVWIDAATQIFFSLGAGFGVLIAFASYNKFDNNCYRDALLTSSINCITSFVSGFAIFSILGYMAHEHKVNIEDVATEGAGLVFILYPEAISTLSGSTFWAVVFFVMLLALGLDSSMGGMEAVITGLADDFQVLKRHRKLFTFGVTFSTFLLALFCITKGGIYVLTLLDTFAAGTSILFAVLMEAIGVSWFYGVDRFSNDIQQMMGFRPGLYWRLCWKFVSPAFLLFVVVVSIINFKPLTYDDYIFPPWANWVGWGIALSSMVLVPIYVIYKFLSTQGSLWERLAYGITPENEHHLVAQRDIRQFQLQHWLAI

Broadly, the pKi is the Ki on a negative log10 scale, so that one unit is a factor of ten. High values mean a small Ki, low ones a large Ki. With `Clc1cccc(-c2nc(N3CCNCC3)nc3ccccc23)c1` [Example 113, 4-(3-chloro-phenyl)-2-piperazin-1-yl-quinazoline], the pKi was 7.54 in test [1] and 6.92 in test [2].

`Clc1ccc(-c2nc(N3CCNCC3)nc3ccccc23)cc1Cl` [Example 115, 4-(3,4-dichloro-phenyl)-2-piperazin-1-yl-quinazoline]: the values for the negative logarithm of the Ki (pKi) in test [1] and in test [2] were 6.94 and 6.48, respectively.

On to `Fc1ccc2c(-c3cccc(F)c3F)nc(N[C@@H]3CCNC3)nc2c1` [Example 116, R-[4-(2,3-Difluoro-phenyl)-7-fluoro-quinazolin-2-yl]-pyrrolidin-3-yl-amine], for which the negative logarithm of the Ki (pKi) in test [1] was 6.86; in test [2], 6.02.

Consider `Cc1cc(F)ccc1-c1nc(N2CCNCC2)nc2cc(F)ccc12` [Example 117, 7-Fluoro-4-(4-fluoro-2-methyl-phenyl)-2-piperazin-1-yl-quinazoline], for which the pKi in test [1] was 7.48; in test [2], 6.94.

As for `Cc1cc(F)ccc1-c1nc(N2CCNCC2)nc2cc(Cl)ccc12` [Example 118, 7-Chloro-4-(4-fluoro-2-methyl-phenyl)-2-piperazin-1-yl-quinazoline], the negative logarithm of the Ki (pKi) in test [1] is 7.17; in test [2], 7.31.

`Fc1ccc2c(-c3ccc(F)c(F)c3)nc(N3CCNCC3)nc2c1` [Example 119, 4-(3,4-Difluoro-phenyl)-7-fluoro-2-piperazin-1-yl-quinazoline]: the negative logarithm of the Ki (pKi) is 8.14 in test [1] and 7.64 in test [2].

As to `Fc1ccc2c(-c3ccc(Cl)cc3Cl)nc(N3CCNCC3)nc2c1` [Example 120, 4-(2,4-Dichloro-phenyl)-7-fluoro-2-piperazin-1-yl-quinazoline], the pKi in test [1] was 7.02; in test [2], 7.47.

Turning to `Fc1ccc2nc(N3CCNCC3)nc(-c3cccc(F)c3F)c2c1` [Example 121, 4-(2,3-Difluoro-phenyl)-6-fluoro-2-piperazin-1-yl-quinazoline], the results for the pKi in test [1] and in test [2] were 7.80 and 7.49, respectively.

Take `Fc1ccc(-c2nc(N3CCNCC3)nc3ccc(F)cc23)c(F)c1` [Example 122, 4-(2,4-Difluoro-phenyl)-6-fluoro-2-piperazin-1-yl-quinazoline]: the pKi in test [1] was 7.92; in test [2], 7.81.

For the molecule `Fc1cc2nc(N3CCNCC3)nc(-c3cccc(F)c3F)c2cc1F` [Example 123, 4-(2,3-Difluoro-phenyl)-6,7-difluoro-2-piperazin-1-yl-quinazoline], the pKi was 7.55 in test [1] and 7.33 in test [2].

For the molecule `C[C@H]1CNCCN1c1nc(-c2cccc(F)c2F)c2ccc(F)cc2n1` [Example 124, S-4-(2,3-Difluoro-phenyl)-7-fluoro-2-(2-methyl-piperazin-1-yl)-quinazoline], the pKi in test [1] was 7.67; in test [2], 7.55.

Consider `Clc1ccc(Cl)c(-c2nc(N3CCNCC3)nc3ccccc23)c1` [Example 125, 4-(2,5-dichloro-phenyl)-2-piperazin-1-yl-quinazoline], for which the pKi in test [1] is 7.49; in test [2], 6.20.

As for `Fc1cc(F)cc(-c2nc(N3CCNCC3)nc3ccccc23)c1` [Example 126, 4-(3,5-difluoro-phenyl)-2-piperazin-1-yl-quinazoline], the pKi in test [1] was 8.43; in test [2] it was 6.97.

Regarding `C[C@H]1CNCCN1c1nc(-c2c(F)cccc2F)c2ccccc2n1` [Example 127, S-4-(2,6-Difluoro-phenyl)-2-(2-methyl-piperazin-1-yl)-quinazoline], the figures for the pKi in test [1] and in test [2] were 7.47 and 7.23, respectively.

`Clc1ccc2nc(N3CCNCC3)nc(-c3ccccc3)c2c1` [Example 128, 6-Chloro-4-phenyl-2-piperazin-1-yl-quinazoline]: the figures for the pKi in test [1] and in test [2] were 7.45 and 7.94, respectively.

With `Fc1ccccc1-c1nc(N2CCNCC2)nc2ccc(Cl)cc12` [Example 129, 4-(2-Fluoro-phenyl)-6-chloro-2-piperazin-1-yl-quinazoline], the pKi in test [1] is 7.59; in test [2], 8.08.

`C[C@@H]1CNCCN1c1nc(-c2cccc(F)c2F)c2ccc(F)cc2n1` [Example 130, R-4-(2,3-Difluoro-phenyl)-7-fluoro-2-(2-methyl-piperazin-1-yl)-quinazoline]: the pKi was 7.61 in test [1] and 7.35 in test [2].

Consider `Fc1cccc(F)c1-c1nc(N2CCNCC2)nc2ccc(Cl)cc12` [Example 131, 4-(2,6-Difluoro-phenyl)-6-chloro-2-piperazin-1-yl-quinazoline], for which the pKi in test [1] was 7.52; in test [2], 8.32.

As to `Fc1cccc2c(-c3ccccc3)nc(N3CCNCC3)nc12` [Example 133, 8-Fluoro-4-phenyl-2-piperazin-1-yl-quinazoline], the pKi in test [1] is 7.66; in test [2], 5.80.

For the molecule `Fc1ccc(-c2nc(N3CCNCC3)nc3cc(F)ccc23)c(Cl)c1` [Example 134, 4-(2-Chloro-4-fluoro-phenyl)-7-fluoro-2-piperazin-1-yl-quinazoline], the pKi in test [1] is 7.52; in test [2], 7.20.

In the case of `Fc1ccc2c(-c3nccs3)nc(N3CCNCC3)nc2c1` [Example 135, 7-Fluoro-2-piperazin-1-yl-4-thiazol-2-yl-quinazoline], the negative-log Ki (pKi) in test [1] is 7.25; in test [2], 6.50.

Turning to `COc1ccccc1-c1nc(N2CCNCC2)nc2cc(F)ccc12` [Example 136, 4-(2-Methoxy-phenyl)-7-fluoro-2-piperazin-1-yl-quinazoline], the pKi in test [1] was 7.37; in test [2], 7.12.

`Cc1ccc(F)cc1-c1nc(N2CCNCC2)nc2cc(F)ccc12` [Example 137, 7-Fluoro-4-(5-fluoro-2-methyl-phenyl)-2-piperazin-1-yl-quinazoline]: the pKi in test [1] is 7.78; in test [2], 6.72.

For `Fc1ccc(-c2nc(N3CCNCC3)nc3cc(F)ccc23)c(F)c1` [Example 140, 4-(2,4-Difluoro-phenyl)-7-fluoro-2-piperazin-1-yl-quinazoline], the negative logarithm of the Ki (pKi) in test [1] is 7.55; in test [2], 7.78.

With `Fc1ccc(-c2nc(NC3CNC3)nc3cc(F)ccc23)c(F)c1` [Example 141, Azetidin-3-yl-[4-(2,4-difluoro-phenyl)-7-fluoro-quinazolin-2-yl]-amine], the negative logarithm of the Ki (pKi) in test [1] was 6.99; in test [2], 5.72.

Take `Fc1ccc(-c2nc(N3CC[C@@H]4CNC[C@@H]43)nc3cc(F)ccc23)c(F)c1` [Example 142, R,R-4-(2,4-Difluoro-phenyl)-7-fluoro-2-(hexahydro-pyrrolo[3,4-b]pyrrol-1-yl)-quinazoline]: the negative logarithm of the Ki (pKi) in test [1] and in test [2] was 7.04 each time.

For `Fc1ccc(-c2nc(N[C@@H]3CCNC3)nc3cc(F)ccc23)c(F)c1` [Example 143, R-[4-(2,4-Difluoro-phenyl)-7-fluoro-quinazolin-2-yl]-pyrrolidin-3-yl-amine], the pKi in test [1] is 7.75; in test [2] it was 8.03.

For `Cc1cccc2nc(N3CCNCC3)nc(-c3ccccc3)c12` [Example 145, 5-Methyl-4-phenyl-2-piperazin-1-yl-quinazoline], the figures for the pKi in test [1] and in test [2] were 7.78 and 6.92, respectively.

`Fc1cc2nc(N3CCNCC3)nc(-c3c(F)cccc3F)c2cc1F` [Example 146, 4-(2,6-Difluoro-phenyl)-6,7-difluoro-2-piperazin-1-yl-quinazoline]: the negative logarithm of the Ki (pKi) in test [1] is 7.50; in test [2] it was 7.72.

`Fc1ccc(-c2nc(N3CCNCC3)nc3cc(F)c(F)cc23)c(F)c1` [Example 147, 4-(2,4-Difluoro-phenyl)-6,7-difluoro-2-piperazin-1-yl-quinazoline]: the pKi in test [1] was 7.55; in test [2], 7.59.

Consider `Fc1cccc(F)c1-c1nc(NC2CCNCC2)nc2ccccc12` [Example 148, [4-(2,6-Difluoro-phenyl)-quinazolin-2-yl]-piperidin-4-yl-amine], for which the values for the pKi in test [1] and in test [2] were 6.57 and 5.39, respectively.

Take `CNC1CCN(c2nc(-c3c(F)cccc3F)c3ccccc3n2)C1` (stereo not shown) [Example 149, {1-[4-(2,6-Difluoro-phenyl)-quinazolin-2-yl)-pyrrolidin-3-yl}-methyl-amine]: the figures for the pKi in test [1] and in test [2] were 6.87 and 5.79, respectively.
